Publication PMC9127186, “Molecular Basis Underlying Hepatobiliary and Renal Excretion of Phenolic Acids of Salvia miltiorrhiza Roots (Danshen)” (Frontiers in Pharmacology, 2022)

Assays:
human PEPT1 = target: T1, human PEPT1 (Homo sapiens, UniProt P46059); assay: Cellular transport assay, HEK-293 cells expressing human PEPT1; conditions: Danshen phenolic acid at 100 μM final concentration, 10 min, incubation pH 6.0; human transporter PEPE1 [sic], transfected vs mock cells
T1 sequence (P46059 1-708): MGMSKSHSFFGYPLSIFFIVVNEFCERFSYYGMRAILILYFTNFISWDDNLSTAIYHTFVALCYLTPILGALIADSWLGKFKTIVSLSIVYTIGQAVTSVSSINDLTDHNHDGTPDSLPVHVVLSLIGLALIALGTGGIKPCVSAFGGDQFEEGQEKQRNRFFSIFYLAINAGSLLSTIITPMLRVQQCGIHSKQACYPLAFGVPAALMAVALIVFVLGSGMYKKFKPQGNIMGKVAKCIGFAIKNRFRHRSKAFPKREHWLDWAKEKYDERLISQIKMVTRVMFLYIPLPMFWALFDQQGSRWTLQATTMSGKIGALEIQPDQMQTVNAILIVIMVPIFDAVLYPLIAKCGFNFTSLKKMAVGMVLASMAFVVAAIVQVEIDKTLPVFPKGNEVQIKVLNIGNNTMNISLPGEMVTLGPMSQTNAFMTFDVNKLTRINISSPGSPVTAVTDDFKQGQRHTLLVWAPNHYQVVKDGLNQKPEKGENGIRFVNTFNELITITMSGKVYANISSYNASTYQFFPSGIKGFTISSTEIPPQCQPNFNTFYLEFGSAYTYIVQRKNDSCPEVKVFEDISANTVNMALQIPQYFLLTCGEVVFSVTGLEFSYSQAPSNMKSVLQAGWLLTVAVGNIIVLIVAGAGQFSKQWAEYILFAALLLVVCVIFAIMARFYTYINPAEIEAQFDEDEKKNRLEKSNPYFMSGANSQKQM

human NTCP = target: T2, human NTCP (Homo sapiens, UniProt Q14973); assay: Cellular transport assay, HEK-293 cells expressing human NTCP; conditions: Danshen phenolic acid at 100 μM final concentration, 10 min; human NTCP-transfected vs mock cells
T2 sequence (Q14973 1-349): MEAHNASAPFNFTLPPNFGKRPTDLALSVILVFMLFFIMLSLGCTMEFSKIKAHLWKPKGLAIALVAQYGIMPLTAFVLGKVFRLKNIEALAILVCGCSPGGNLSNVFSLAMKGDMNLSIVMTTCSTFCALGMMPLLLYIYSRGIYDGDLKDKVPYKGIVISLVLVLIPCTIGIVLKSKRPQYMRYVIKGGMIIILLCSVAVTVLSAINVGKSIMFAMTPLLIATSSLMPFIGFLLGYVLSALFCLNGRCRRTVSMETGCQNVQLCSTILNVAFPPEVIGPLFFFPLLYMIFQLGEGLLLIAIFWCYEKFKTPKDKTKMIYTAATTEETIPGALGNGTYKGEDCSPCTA

human OCT3 = target: T3, human OCT3 (Homo sapiens, UniProt O75751); assay: Cellular transport assay, HEK-293 cells expressing human OCT3; conditions: Danshen phenolic acid at 100 μM final concentration, 10 min; human OCT3-transfected vs mock cells
T3 sequence (O75751 1-556): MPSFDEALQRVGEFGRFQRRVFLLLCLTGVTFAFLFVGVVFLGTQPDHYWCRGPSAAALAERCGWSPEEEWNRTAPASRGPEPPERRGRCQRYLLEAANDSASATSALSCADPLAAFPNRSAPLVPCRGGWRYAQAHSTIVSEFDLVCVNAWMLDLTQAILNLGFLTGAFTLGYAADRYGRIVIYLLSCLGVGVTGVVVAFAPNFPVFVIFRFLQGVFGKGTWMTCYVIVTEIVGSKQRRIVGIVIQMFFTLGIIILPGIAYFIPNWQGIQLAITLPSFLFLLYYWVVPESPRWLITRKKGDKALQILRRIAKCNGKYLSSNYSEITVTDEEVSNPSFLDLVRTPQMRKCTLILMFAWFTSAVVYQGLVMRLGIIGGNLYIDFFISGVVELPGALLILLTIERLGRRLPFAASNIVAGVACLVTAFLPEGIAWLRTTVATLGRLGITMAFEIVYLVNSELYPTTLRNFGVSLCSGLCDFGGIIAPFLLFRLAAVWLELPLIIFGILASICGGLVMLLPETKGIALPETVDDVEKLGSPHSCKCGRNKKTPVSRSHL

rat Octn2 = target: T4, rat Octn2 (Rattus norvegicus, UniProt O70594); assay: Cellular transport assay, HEK-293 cells expressing rat Octn2; conditions: Danshen phenolic acid at 100 μM final concentration, 10 min; rat Octn2-transfected vs mock cells
T4 sequence (O70594 1-557): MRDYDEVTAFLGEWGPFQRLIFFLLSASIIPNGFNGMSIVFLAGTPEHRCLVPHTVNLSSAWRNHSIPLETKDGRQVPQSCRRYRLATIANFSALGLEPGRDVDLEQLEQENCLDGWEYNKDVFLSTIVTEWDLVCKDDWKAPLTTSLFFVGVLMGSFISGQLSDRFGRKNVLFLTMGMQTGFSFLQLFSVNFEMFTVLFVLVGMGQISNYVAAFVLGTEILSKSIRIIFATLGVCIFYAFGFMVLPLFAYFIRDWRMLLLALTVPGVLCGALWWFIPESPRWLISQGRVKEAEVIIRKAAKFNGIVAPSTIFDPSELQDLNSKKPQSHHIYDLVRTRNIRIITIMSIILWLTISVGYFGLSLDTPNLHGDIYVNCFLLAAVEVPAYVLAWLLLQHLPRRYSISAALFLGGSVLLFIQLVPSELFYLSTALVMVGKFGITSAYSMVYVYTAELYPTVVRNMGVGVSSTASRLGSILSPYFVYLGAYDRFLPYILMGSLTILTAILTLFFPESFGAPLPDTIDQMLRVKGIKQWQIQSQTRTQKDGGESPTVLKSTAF

Molecule | TransportTC/TransportMC ratio (net transport ratio) (human PEPT1) | TransportTC/TransportMC ratio (net transport ratio) (human NTCP) | TransportTC/TransportMC ratio (net transport ratio) (human OCT3) | TransportTC/TransportMC ratio (net transport ratio) (rat Octn2)
O=C(/C=C/c1ccc(O)c2c1[C@H](C(=O)O)[C@@H](c1ccc(O)c(O)c1)O2)O[C@H](Cc1ccc(O)c(O)c1)C(=O)O [Lithospermic acid, lithospermic acid] | 1.86 ± 0.36 | 2.44 ± 0.13 | 0.84 ± 0.15 | 0.95 ± 0.11
O=C(O)c1ccc(O)c(O)c1 [Protocatechuic acid, protocatechuic acid] | 0.93 ± 0.34 | 1.26 ± 0.15 | 0.94 ± 0.24 | 0.91 ± 0.17
O=C(/C=C/c1ccc(O)c(O)c1)O[C@H](Cc1ccc(O)c(O)c1)C(=O)O [Rosmarinic acid, rosmarinic acid] | – | – | 0.75 ± 0.23 | –
O=C(O)Cc1c(/C=C/C(=O)O[C@H](Cc2ccc(O)c(O)c2)C(=O)O)ccc(O)c1O [Salvianolic acid D, salvianolic acid D] | 1.06 ± 0.20 | 2.09 ± 0.36 | 0.94 ± 0.32 | 1.12 ± 0.22
salvianolic acid B | 2.05 ± 0.22 | 2.88 ± 0.21 | 0.75 ± 0.38 | 1.25 ± 0.21
